The numbers were not newly measured in patent publication US20090022799A1, “COMPOSITIONS THAT CONTAIN BETA-GLUCAN TO BE USED FOR THE PREVENTION AND TREATMENT OF DISEASE AND METHODS FOR THEIR USE” (priority 2006, published 2009), which cites them from elsewhere.

The conditions of data set [1]: β-Glucan particles.
The conditions of data set [2]: forms a suspension in aqueous solution.
For data set [3] the following is noted: human clinical trials.

Counter-ions that a name gives are not always drawn.

With Beta-(1→3)-d-Glucan [β-Glucan], the median particle size in data set [1] is 3.7-4.6 μm. In addition, the solubility in water entry in data set [2] is “insoluble”. Further, the safety and tolerability entry in data set [3] was “safe and well-tolerated”.

Take `[H]/N=C(\N/C(=N/[H])NCCCCCCNC(=N)NC(=N)Nc1ccc(Cl)cc1)Nc1ccc(Cl)cc1` [Chlorhexidine hydrochloride, chlorhexidine hydrochloride, reference compound]: the solubility in water result in data set [2] is reported as “limited solubility”.
